# Experimental data: patent US9464056B2, “Fungicidal 4-methylanilino pyrazoles” (E. I. DU PONT DE NEMOURS AND COMPANY, priority 2012, dated 2016)
# Tests used:
# Septoria tritici = assay: Test D: preventive spray on wheat seedlings, Septoria tritici (wheat leaf blotch), visual disease rating; format: in vivo; conditions: Zymoseptoria tritici, topical, 504 h, 100 = 100% disease control, 0 = no disease control relative to controls
# Description: General protocol for preparing test suspensions for Tests A-H: the test compounds were first dissolved in acetone in an amount equal to 3% of the final volume and then suspended at the desired concentration (in ppm) in acetone and purified water (50/50 mix by volume) containing 250 ppm of the surfactant Trem® 014 (polyhydric alcohol esters). The resulting test suspensions were then used in Tests A-F. Spraying a 40 ppm test suspension to the point of run-off on the test plants was the equivalent of a rate of 160 g/ha. Unless otherwise indicated, the rating values indicate a 40 ppm test suspension was used. The test suspension was sprayed to the point of run-off on wheat seedlings. The following day the seedlings were inoculated with a spore suspension of Septoria tritici (the causal agent of wheat leaf blotch) and incubated in saturated atmosphere at 24° C. for 48 h, and then moved to a growth chamber at 20° C. for 19 days, after which time visual disease ratings were made. Results for Tests A-F are given in Table A. In the Table, a rating of 100 indicates 100% disease control and a rating of 0 indicates no disease control (relative to the controls). A dash (-) indicates no test results.
# Septoria nodorum = assay: Test C: preventive spray on wheat seedlings, Septoria nodorum (Septoria glume blotch), visual disease rating; format: in vivo; conditions: Parastagonospora nodorum, topical, 264 h, 100 = 100% disease control, 0 = no disease control relative to controls
# Description: General protocol for preparing test suspensions for Tests A-H: the test compounds were first dissolved in acetone in an amount equal to 3% of the final volume and then suspended at the desired concentration (in ppm) in acetone and purified water (50/50 mix by volume) containing 250 ppm of the surfactant Trem® 014 (polyhydric alcohol esters). The resulting test suspensions were then used in Tests A-F. Spraying a 40 ppm test suspension to the point of run-off on the test plants was the equivalent of a rate of 160 g/ha. Unless otherwise indicated, the rating values indicate a 40 ppm test suspension was used. The test suspension was sprayed to the point of run-off on wheat seedlings. The following day the seedlings were inoculated with a spore suspension of Septoria nodorum (the causal agent of Septoria glume blotch) and incubated in a saturated atmosphere at 20° C. for 48 h, and then moved to a growth chamber at 20° C. for 9 days, after which time visual disease ratings were made. Results for Tests A-F are given in Table A. In the Table, a rating of 100 indicates 100% disease control and a rating of 0 indicates no disease control (relative to the controls). A dash (-) indicates no test results.
# [1] = system: Puccinia recondita f. sp. tritici; assay: Test E2: preventive spray on wheat seedlings, Puccinia recondita f. sp. tritici (wheat leaf rust), visual disease rating; format: in vivo; conditions: topical, 192 h, 100 = 100% disease control, 0 = no disease control relative to controls
# Description: (§1) General protocol for preparing test suspensions for Tests A-H: the test compounds were first dissolved in acetone in an amount equal to 3% of the final volume and then suspended at the desired concentration (in ppm) in acetone and purified water (50/50 mix by volume) containing 250 ppm of the surfactant Trem® 014 (polyhydric alcohol esters). The resulting test suspensions were then used in Tests A-F. Spraying a 40 ppm test suspension to the point of run-off on the test plants was the equivalent of a rate of 160 g/ha. Unless otherwise indicated, the rating values indicate a 40 ppm test suspension was used. The test suspension was sprayed to the point of run-off on wheat seedlings. The following day the seedlings were inoculated with a spore suspension of Puccinia recondita f. sp. tritici (the causal agent of wheat leaf rust) and incubated in a saturated atmosphere at 20° C. for 24 h, and then moved to a growth chamber at 20° C. for 7 days, after which time visual disease ratings were made. Results for Tests A-F are given in Table A. In the Table, a rating of 100 indicates 100% disease control and a rating of 0 indicates no disease control (relative to the controls). A dash (-) indicates no test results.
# [2] = system: Blumeria graminis f. sp. tritici; assay: Test F: preventive spray on wheat seedlings, Blumeria graminis f. sp. tritici (wheat powdery mildew), visual disease rating; format: in vivo; conditions: topical, 192 h, 100 = 100% disease control, 0 = no disease control relative to controls
# Description: as §1, with “spore dust” for “spore suspension”, “of Blumeria graminis” for “of Puccinia recondita”, “tritici (also known as Erysiphe graminis f. sp. tritici, the” for “tritici (the”, “wheat powdery mildew)” for “wheat leaf rust)”, “in” for “in a saturated atmosphere at 20° C. for 24 h, and then moved to”, “for 8” for “for 7”
# Botrytis cinerea = assay: Test A: preventive spray on tomato seedlings, Botrytis cinerea (tomato Botrytis), visual disease rating; format: in vivo; conditions: 100 = 100% disease control, 0 = no disease control relative to controls
# Description: General protocol for preparing test suspensions for Tests A-H: the test compounds were first dissolved in acetone in an amount equal to 3% of the final volume and then suspended at the desired concentration (in ppm) in acetone and purified water (50/50 mix by volume) containing 250 ppm of the surfactant Trem® 014 (polyhydric alcohol esters). The resulting test suspensions were then used in Tests A-F. Spraying a 40 ppm test suspension to the point of run-off on the test plants was the equivalent of a rate of 160 g/ha. Unless otherwise indicated, the rating values indicate a 40 ppm test suspension was used. The test suspension was sprayed to the point of run-off on tomato seedlings. The following day the seedlings were inoculated with a spore suspension of Botrytis cinerea (the causal agent of tomato Botrytis) and incubated in saturated atmosphere at 20° C. for 48 h, and then moved to a growth chamber at 27° C. for 3 days, after which time visual disease ratings were made. Results for Tests A-F are given in Table A. In the Table, a rating of 100 indicates 100% disease control and a rating of 0 indicates no disease control (relative to the controls). A dash (-) indicates no test results.
structure (smiles),measurement,setting,value
"Cc1cc(Cl)c(Nc2c(-c3ccc(F)cc3F)c(C)nn2C)c(Cl)c1 [Compound 16, N-(2,6-dichloro-4-methylphenyl)-4-(2,4-difluorophenyl)-1,3-dimethyl-1H-pyrazol-5-amine]",pest or weed control at 40 µg/mL,Septoria tritici,73%
same,pest or weed control at 40 µg/mL,Septoria nodorum,97%
same,pest or weed control at 40 µg/mL,[1],100%
same,melting point,,147 to 149 °C
same,pest or weed control at 40 µg/mL,[2],99%
same,pest or weed control at 40 µg/mL,Botrytis cinerea,100%
